The values that follow come from patent US7223759B2, “Antibacterial 3,5-diaminopiperidine-substituted aromatic and heteroaromatic compounds” (Anadys Pharmaceuticals, Inc., priority 2003, dated 2007).

The first test has as its system Escherichia coli (ATCC25922) or Staphylococcus aureus (ATCC25923). The test is described as follows: Antibacterial MIC, microdilution method in Mueller-Hinton medium. Type of test: cell-based. The conditions noted are these: Escherichia coli, 18 h, MIC in E. coli or S. aureus; two-fold serial dilutions 64 to 0.5 μg/ml in duplicate; 18 hours of incubation at 35° C.; read-out: Potency (MIC). The method, then: The antibacterial activity of the Formula I compounds was evaluated against standard bacterial strains by determining the minimal inhibitory concentration (MIC) to block growth. Each drug was assayed by the microdilution method in Mueller-Hinton medium, as recommended by the National Committee for Clinical Laboratory Standards. Approved Standard M7-A5: Methods for Dilution Antimicrobial Susceptibility Tests for Bacteria That Grow Aerobically 5th Ed. (National Committee for Clinical Laboratory Standards, Wayne, Pa., 2000). The tested bacterial strains included Escherichia coli (American Type Collection ATCC25922), Staphylococcus aureus (ATCC25923), and Pseudomonas aeruginosa (ATCC27853). Two-fold serial dilutions of each compound ranging from 64 to 0.5 μg/ml were tested in duplicate. The MIC was determined as the lowest concentration of each compound that prevented bacterial growth after 18 hours of incubation at 35° C. […] The mass of each compound in the Table was confirmed by LC-MS.
For `Cl.Oc1cccc(C2CCN(c3nc(N4CCCCC4)nc(N4CCCCC4)n3)CC2)c1` [3-[1-(4,6-Bis-((3R,5S)-3,5-diamino-piperidin-1-yl)-[1,3,5]triazin-2-yl)-piperidin-4-yl]-phenyl], the MIC was above 64 µg/mL.

The same test, now with this note: Escherichia coli, 18 h, read-out: Potency (MIC).
As for `NC[C@@H]1C[C@@H](O)CN1c1nc(Nc2ccc3c(c2)C(=O)c2ccccc2-3)nc(N2C[C@H](N)C[C@H](N)C2)n1` [2-[4-((2S,4R)-2-Aminomethyl-4-hydroxy-pyrrolidin-1-yl)-6-((3R,5S)-3,5-diamino-piperidin-1-yl)-[1,3,5]triazin-2-ylamino]-fluoren-9-one], the MIC is above 64 µg/mL.
Same read-out and setting: the same measure for `NC[C@@H]1C[C@H](N)CN1c1nc(Nc2ccc3c(c2)C(=O)c2ccccc2-3)nc(N2C[C@H](N)C[C@H](N)C2)n1` [2-[4-((2S,4S)-4-Amino-2-aminomethyl-pyrrolidin-1-yl)-6-((3R,5S)-3,5-diamino-piperidin-1-yl)-[1,3,5]triazin-2-ylamino]-fluoren-9-one]: above 64 µg/mL; for `COc1nc(Nc2ccc3c(c2)C(=O)c2ccccc2-3)nc(N2C[C@H](N)C[C@H](N)C2)n1` [2-[4-((3R,5S)-3,5-Diamino-piperidin-1-yl)-6-methoxy-[1,3,5]triazin-2-ylamino]-fluoren-9-one]: above 64 µg/mL; for `NCCNc1nc(Nc2ccc3c(c2)-c2ccccc2C3=O)nc(N2C[C@H](N)C[C@H](N)C2)n1` [3-[4-(2-Amino-ethylamino)-6-((3R,5S)-3,5-diamino-piperidin-1-yl)-[1,3,5]triazin-2-ylamino]-fluoren-9-one]: above 64 µg/mL.
Still for that read-out and setting: the same measure for `NC[C@@H]1CN(c2nc(Nc3ccc4c(c3)-c3ccccc3C4=O)nc(N3C[C@H](N)C[C@H](N)C3)n2)CC[C@@H]1O` [3-[4-((3R,4S)-3-Aminomethyl-4-hydroxy-piperidin-1-yl)-6-((3R,5S)-3,5-diamino-piperidin-1-yl)-[1,3,5]triazin-2-ylamino]-fluoren-9-one]: above 64 µg/mL; for `NC[C@@H]1C[C@H](CN)CN(c2nc(Nc3ccc4c(c3)-c3ccccc3C4=O)nc(N3C[C@H](N)C[C@H](N)C3)n2)C1` [3-[4-((3R,5S)-3,5-Bis-(aminomethyl)-piperidin-1-yl)-6-((3R,5S)-3,5-diamino-piperidin-1-yl)-[1,3,5]triazin-2-ylamino]-fluoren-9-one]: below 64 µg/mL.
Turning to `N[C@@H]1C[C@H](N)CN(c2nc(Nc3ccc4c(c3)-c3ccccc3C4=O)nc(N3C[C@@H](N)[C@@H](N)C3)n2)C1` [3-[4-((3R,5S)-3,5-Diamino-piperidin-1-yl)-6-((3R,4S)-3,4-diamino-pyrrolidin-1-yl)-[1,3,5]triazin-2-ylamino]-fluoren-9-one], the MIC was below 64 µg/mL.
The same measure, in the same setting: the same measure for `N[C@@H]1C[C@H](N)CN(c2nc(Nc3ccc4c(c3)-c3ccccc3C4=O)nc(N3C[C@@H](O)[C@@H](O)C3)n2)C1` [3-[4-((3S,5R)-3,5-Diamino-piperidin-1-yl)-6-((3R,4S)-3,4-dihydroxy-pyrrolidin-1-yl)-[1,3,5]triazin-2-ylamino}-fluoren-9-one]: above 64 µg/mL; for `N[C@@H]1C[C@H](N)CN(c2nc(Nc3ccc4c(c3)-c3ccccc3C4=O)nc(N3CCC[C@@H](O)C3)n2)C1` [3-[4-((3S,5R)-3,5-Diamino-piperidin-1-yl)-6-((R)-3-hydroxy-piperidin-1-yl)-[1,3,5]triazin-2-ylamino]-fluoren-9-one]: below 64 µg/mL; for `N[C@@H]1C[C@H](N)CN(c2nc(Nc3ccc4c(c3)-c3ccccc3C4=O)nc(N3C[C@@H](N)C[C@@H](O)C3)n2)C1` [3-[4-((3S,5R)-3-Amino-5-hydroxy-piperidin-1-yl)-6-((3S,5R)-3,5-diamino-piperidin-1-yl)-[1,3,5]triazin-2-ylamino]-fluoren-9-one]: below 16 µg/mL.
The same measure, in the same setting: the same measure for `NCCN(CCN)c1nc(Nc2ccc3c(c2)-c2ccccc2C3=O)nc(N2C[C@H](N)C[C@H](N)C2)n1` [3-[4-[Bis(2-amino-ethyl)-amino]-6-((3R,5S)-3,5-diamino-piperidin-1-yl)-[1,3,5]triazin-2-ylamino]-fluoren-9-one]: above 64 µg/mL; for `NC[C@H]1[C@@H](O)CCN1c1nc(Nc2ccc(C(=O)CC(=O)Nc3ccccc3Cl)cc2)nc(N2C[C@H](N)C[C@H](N)C2)n1` [3-{4-[4-((2S,3S)-2-Aminomethyl-3-hydroxy-pyrrolidin-1-yl)-6-((3R,5S)-3,5-diamino-piperidin-1-yl)-[1,3,5]triazin-2-ylamino]-phenyl}-N-(2-chloro-phenyl)-3-oxo-propionamide]: below 64 µg/mL; for `NC[C@@H]1C[C@@H](O)CN1c1nc(Nc2ccc(C(=O)CC(=O)Nc3ccc4c(c3)OC(F)(F)O4)cc2)nc(N2C[C@H](N)C[C@H](N)C2)n1` [3-{4-[4-((2S,4R)-2-Aminomethyl-4-hydroxy-pyrrolidin-1-yl)-6-((3R,5S)-3,5-diamino-piperidin-1-yl)-[1,3,5]triazin-2-ylamino]-phenyl}-N-(2,2-difluoro-benzo[1,3]dioxol-5-yl)-3-oxo-propionamide]: below 16 µg/mL.
For `NC[C@@H]1C[C@@H](O)CN1c1nc(Nc2ccc(C(=O)CC(=O)Nc3ccccc3Cl)cc2)nc(N2C[C@H](N)C[C@H](N)C2)n1` [3-{4-[4-((2S,4R)-2-Aminomethyl-4-hydroxy-pyrrolidin-1-yl)-6-((3R,5S)-3,5-diamino-piperidin-1-yl)-[1,3,5]triazin-2-ylamino]-phenyl}-N-(2-chloro-phenyl)-3-oxo-propionamide], the minimal inhibitory concentration (MIC) was below 64 µg/mL.
On the same count and under the same terms, the same measure for `NC[C@@H]1C[C@@H](O)CN1c1nc(Nc2ccc(C(=O)CC(=O)Nc3ccc(F)c(F)c3)cc2)nc(N2C[C@H](N)C[C@H](N)C2)n1` [3-{4-[4-((2S,4R)-2-Aminomethyl-4-hydroxy-pyrrolidin-1-yl)-6-((3R,5S)-3,5-diamino-piperidin-1-yl)-[1,3,5]triazin-2-ylamino]-phenyl}-N-(3,4-difluoro-phenyl)-3-oxo-propionamide]: below 64 µg/mL.
Same read-out and setting: for `NC[C@@H]1C[C@H](N)CN1c1nc(Nc2ccc(C(=O)CC(=O)Nc3ccc(SC(F)(F)F)cc3)cc2)nc(N2C[C@H](N)C[C@H](N)C2)n1` [3-{4-[4-((2S,4S)-4-Amino-2-aminomethyl-pyrrolidin-1-yl)-6-((3R,5S)-3,5-diamino-piperidin-1-yl)-[1,3,5]triazin-2-ylamino]-phenyl}-3-oxo-N-(4-trifluoromethylsulfanyl-phenyl)-propionamide] the value was below 16 µg/mL.
Still for that read-out and setting: the same measure for `NC[C@@H]1C[C@H](N)CN1c1nc(Nc2ccc(C(=O)CC(=O)Nc3ccccc3Cl)cc2)nc(N2C[C@H](N)C[C@H](N)C2)n1` [3-{4-[4-((2S,4S)-4-Amino-2-aminomethyl-pyrrolidin-1-yl)-6-((3R,5S)-3,5-diamino-piperidin-1-yl)-[1,3,5]triazine-2-ylamino]-phenyl}-N-(2-chloro-phenyl)-3-oxo-propionamide]: below 64 µg/mL; for `N[C@@H]1C[C@H](N)CN(c2nc(Nc3ccc(C(=O)CC(=O)Nc4ccc(SC(F)(F)F)cc4)cc3)nc(N3C[C@@H](N)C[C@H]3CO)n2)C1` [3-{4-[4-((2S,4S)-4-Amino-2-hydroxymethyl-pyrrolidin-1-yl)-6-((3R,5S)-3,5-diamino-piperidin-1-yl)-[1,3,5]triazin-2-ylamino]-phenyl}-3-oxo-N-(4-trifluoromethylsulfanyl-phenyl)-propionamide]: below 16 µg/mL; for `N[C@@H]1C[C@H](N)CN(c2nc(Nc3ccc(C(=O)CC(=O)Nc4ccc5c(c4)OC(F)(F)O5)cc3)nc(N3C[C@@H](N)C[C@H]3CO)n2)C1` [3-{4-[4-((2S,4S)-4-Amino-2-hydroxymethyl-pyrrolidin-1-yl)-6-((3R,5S)-3,5-diamino-piperidin-1-yl)-[1,3,5]triazin-2-ylamino]-phenyl}-N-(2,2-difluoro-benzo[1,3]dioxol-5-yl)-3-oxo-propionamide]: below 16 µg/mL.
Turning to `N[C@@H]1C[C@H](N)CN(c2nc(Nc3ccc(C(=O)CC(=O)Nc4ccccc4Cl)cc3)nc(N3C[C@@H](N)C[C@H]3CO)n2)C1` [3-{4-[4-((2S,4S)-4-Amino-2-hydroxymethyl-pyrrolidin-1-yl)-6-((3R,5S)-3,5-diamino-piperidin-1-yl)-[1,3,5]triazin-2-ylamino]-phenyl}-N-(2-chloro-phenyl)-3-oxo-propionamide], the MIC is below 64 µg/mL.

The same test, now with this note: MIC in E. coli or S. aureus; two-fold serial dilutions 64 to 0.5 μg/ml in duplicate; 18 hours of incubation at 35° C.
In the case of `NC[C@@H]1C[C@@H](O)CN1c1nc(Nc2ccc(C(=O)CC(=O)Nc3ccc(SC(F)(F)F)cc3)cc2)nc(N2C[C@H](N)C[C@H](N)C2)n1` [3-{4-[4-((2S,4RE)-2-Aminomethyl-4-hydroxy-pyrrolidin-1-yl)-6-((3R,5S)-3,5-diamino-piperidin-1-yl)-[1,3,5]triazin-2-ylamino]-phenyl}-3-oxo-N-(4-trifluoromethylsulfanyl-phenyl)-propionamide], the “Potency (MIC)” value is recorded as “++ (++ means MIC<16 μg/ml in E. coli or S. aureus)”.
The same measure, in the same setting: for `NC[C@@H]1C[C@H](N)CN1c1nc(Nc2ccc(C(=O)CC(=O)Nc3ccc(F)c(F)c3)cc2)nc(N2C[C@H](N)C[C@H](N)C2)n1` [3-{4-[4-((2S,4S)-4-Amino-2-aminomethyl-pyrrolidin-1-yl)-6-((3R,5S)-3,5-diamino-piperidin-1-yl)-[1,3,5]triazin-2-ylamino]-phenyl}-N-(3,4-difluoro-phenyl)-3-oxco-propionamide] the value was “+ (+ means MIC<64 μg/ml in E. coli or S. aureus)”.
